According to patent US20020026053A1, “Novel 3-(substituted) -2- indolinones compounds and use thereof as inhibitors of protein kinase activity” (priority 1997, published 2002):

Tests used:
PDGF-R = PDGF-R Assay (cellular ELISA, U1242 cells); format: cell-based; design: concentration or dose not given beside the values
Outline: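 Cellular ELISA for receptor autophosphorylation: after 2 hr test-compound treatment of serum-free U1242 cells at 37°C, ligand is added for 5–10 min, cells are lysed (HNTG) and receptor captured by specific antibody. Anti-phosphotyrosine plus secondary antibody with ABTS colour read at 410/630 nm, compared with compound-free control cells.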

EGFR = molecular target: T1, EGFR (Homo sapiens, UniProt P00533); assay: Biochemical EGFR Assay; design: concentration or dose not given beside the values
T1 construct: endogenous in cells; host or cells: A431 cells (lysate, captured with SUMO1 anti-EGFR antibody)
T1 sequence (P00533 25-1210): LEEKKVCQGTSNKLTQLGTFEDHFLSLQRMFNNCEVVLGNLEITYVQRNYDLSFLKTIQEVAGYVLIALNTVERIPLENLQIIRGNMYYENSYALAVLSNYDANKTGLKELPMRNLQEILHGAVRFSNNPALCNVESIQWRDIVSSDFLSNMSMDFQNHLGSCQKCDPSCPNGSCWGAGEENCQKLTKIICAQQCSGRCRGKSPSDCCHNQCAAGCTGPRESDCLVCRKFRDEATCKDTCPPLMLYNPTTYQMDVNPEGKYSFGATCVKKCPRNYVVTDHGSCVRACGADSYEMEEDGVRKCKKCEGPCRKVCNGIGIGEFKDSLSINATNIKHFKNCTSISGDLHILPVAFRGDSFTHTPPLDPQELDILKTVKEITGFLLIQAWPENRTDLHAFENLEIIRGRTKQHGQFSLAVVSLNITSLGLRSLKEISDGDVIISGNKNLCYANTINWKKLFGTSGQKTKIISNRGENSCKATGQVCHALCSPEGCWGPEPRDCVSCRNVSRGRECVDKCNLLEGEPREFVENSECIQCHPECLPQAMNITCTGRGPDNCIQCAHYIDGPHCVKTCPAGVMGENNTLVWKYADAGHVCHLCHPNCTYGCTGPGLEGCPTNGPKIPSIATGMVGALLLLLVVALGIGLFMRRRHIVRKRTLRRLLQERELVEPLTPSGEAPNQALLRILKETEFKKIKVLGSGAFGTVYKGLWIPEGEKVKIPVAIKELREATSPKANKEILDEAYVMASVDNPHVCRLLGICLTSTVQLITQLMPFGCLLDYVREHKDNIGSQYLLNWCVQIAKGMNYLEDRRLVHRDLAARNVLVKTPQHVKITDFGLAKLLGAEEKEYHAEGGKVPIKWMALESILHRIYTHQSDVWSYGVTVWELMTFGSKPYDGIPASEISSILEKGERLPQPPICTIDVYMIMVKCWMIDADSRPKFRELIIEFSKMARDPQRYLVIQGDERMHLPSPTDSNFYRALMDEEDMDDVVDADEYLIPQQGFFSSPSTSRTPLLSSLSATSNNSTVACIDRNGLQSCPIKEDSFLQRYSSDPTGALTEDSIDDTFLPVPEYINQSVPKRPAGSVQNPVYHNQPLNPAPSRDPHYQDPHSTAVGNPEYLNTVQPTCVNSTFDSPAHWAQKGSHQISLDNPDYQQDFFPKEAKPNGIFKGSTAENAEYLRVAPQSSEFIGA
Outline: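 Readout is ABTS absorbance at 410 nm after anti-phosphotyrosine and HRP-antibody detection of EGFR autophosphorylation. The kinase was immunocaptured from A431 lysate, exposed 30 min to test compound diluted 1:10 in TBS, then phosphorylated for 5 min with ATP/MnCl2 before an EDTA stop.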

| SMILES | PDGF Kinase % Inhibition (P.119) (PDGF-R) | Biochem EGFR % Inhibition (P.167) (EGFR) |
| --- | --- | --- |
| O=C1Nc2ccc(CCCl)cc2C1=Cc1cc(Cl)cc(Cl)c1O [10734/G03] | −3.8% | 82.8% |
| O=C1Nc2ccc(CCCl)cc2C1=Cc1cc(Cl)ccc1O [10734/G04] | 16.1% | 62.9% |
| CCN(CC)c1ccc(C=C2C(=O)Nc3ccc(CCCl)cc32)c(O)c1 [10734/G05] | 2.9% | −0.3% |
| O=C1Nc2ccc(CCCl)cc2C1=Cc1ccc([N+](=O)[O-])cc1 [10734/G06] | −18.8% | 12.5% |
| O=C1Nc2ccc(CCCl)cc2C1=Cc1cc(Br)cc(Br)c1O [10734/G07] | −25.0% | 51.1% |
| O=C1Nc2ccc(CCCl)cc2C1=Cc1cccc(F)c1O [10734/G08] | 0.2% | 33.7% |
| O=C1Nc2ccc(CCCl)cc2C1=Cc1ccc(O)c(Br)c1 [10734/G09] | −7.7% | 21.4% |
| CC(C)(C)c1ccc(C=C2C(=O)Nc3ccc(CCCl)cc32)cc1 [10734/G10] | 9.9% | 3.8% |
| O=C1Nc2ccc(CCCl)cc2C1=Cc1ccc(Br)s1 [10734/G11] | −25.4% | 4.1% |
| CCOc1cccc(C=C2C(=O)Nc3c(Br)cc(Br)c(C)c32)c1O [10734/H02] | −10.8% | −11.9% |
| Cc1c(Br)cc(Br)c2c1C(=Cc1cc(Cl)cc(Cl)c1O)C(=O)N2 [10734/H03] | 8.6% | 6.6% |
| Cc1c(Br)cc(Br)c2c1C(=Cc1cc(Cl)ccc1O)C(=O)N2 [10734/H04] | 6.0% | 5.9% |
